# From paper doi:10.1101/2025.03.03.641193, “Trihydroxybenzaldoximes are redox cycling inhibitors of ThDP-dependent DXP synthase” (bioRxiv, 2025)
# Read-outs that look alike come from different tables or passages of the source.
# How the values were obtained:
# R478A DXPS = target: T1, R478A DXPS (Escherichia coli, UniProt P77488, R478A); conditions: EcR478A vs WT; cited from earlier work
# T1 construct: made in house
# EcDXPS [1] = target: T2, EcDXPS (Escherichia coli, UniProt P77488); conditions: cited from earlier work; for inhibitory activity against DXPS: source not stated at the place, probably ref 32
# T2 construct: made in house
# EcDXPS [2] = target: T2, EcDXPS; test: DXPS-IspC coupled assay, aerobic, WT EcDXPS; assay type: biochemical, E. coli; conditions: for MOI varying D-GAP / MOI varying pyruvate: WT EcDXPS, aerobic
# Protocol: Inhibitory activity of compounds against DXPS were monitored via a continuous spectrophotometric coupled assay with DXPS and IspC as previously described.[41],[42] Briefly, Reaction mixtures containing HEPES (100 mM, pH 8.0), MgCl2 (2 mM), NaCl (5 mM), ThDP (1 mM), BSA (1 mg/mL), DXPS (125–500 nM), IspC (1.7 μM), NADPH (160 μM), DMSO (5%, v/v), and inhibitor (0–200 μM) were preincubated at 25 °C (or chamber temperature 25–30 °C) for 5 min. Enzymatic reactions were initiated via the addition of 20 μL of a 10x substrate mix for a final well volume of 200 μL. Reactions were performed in triplicate unless otherwise noted. See the following sections for details and modifications.
# When varying pyruvate (0–500 μM), GAP was maintained at 50 μM (3 mM for R478A). When varying GAP (0–500 μM), pyruvate was maintained at 500 μM. The following [DXPS] were used when varying 1: WT EcDXPS, R478A, H431A, D427A (200 nM), R99A (500 nM), WT DrDXPS, WT PaDXPS (150 nM). […] Reactions were incubated and initiated as described above. Immediately following initiation, NADPH depletion was monitored at 340 nm at 25 °C for 7–10 min with a 14–20 second time interval. Initial velocities of DXP formation were determined from the linear portion of the NADPH decay. […] Initial velocities were plotted vs. substrate concentration, and the data were fit to equation 1 (mixed model), 2 (competitive), or 3 (uncompetitive) based on the calculated α value and goodness of fit in GraphPad Prism. Reported standard errors of the mean for Kis are calculated from three replicates.
# DXPS = target: T3, DXPS (Escherichia coli, UniProt P77488); test: NMR detection of chemical reduction by DXPS and substrates (LR 1H-15N HSQC); assay type: biochemical; conditions: 500 μM
# T3 construct: made in house
# Protocol: In order to determine if 1 is reduced by the C2-α-carbanion on DXPS, we prepared the ^15N-labeled analog 8 aerobically in Tris pH 8 (to bias the oxidized form, Fig S7) and then transferred this mixture to the anaerobic chamber to minimize O2-mediated re-oxidation of 8 following reduction by the C2-α-carbanion (Fig S18). […] Reactions containing 8 (500 μM) were then initiated by the addition of DXPS (1 μM) and ^13C-labeled pyruvate (2 mM), in the presence or absence of 500 μM GAP (Fig 8B–E, S22–23). Samples were then quenched by boiling and vortexing before being transferred into degassed NMR tubes and sealed with rubber septa and parafilm to preclude reoxygenation. […] Further evidence supporting Model 2 in which 1 induces LThDP decarboxylation and promotes substrate wasting, was obtained by detection of products using 1D ^1H-NMR which selectively detects H{^13C} and H3{^13C} spectra via a proton multiplicity filter (Fig 8, S23–24). […] Production of DXP relative to acetate in the presence of D-GAP was reduced in the presence of 8 (Fig S24), consistent with a mechanism in which 1 competes with GAP as an acceptor and in agreement with the previously characterized competitive mechanism of inhibition with respect to D-GAP.[32]
# Reaction buffer (50 mM Tris pH 8, 2 mM MgCl2, 100 mM NaCl, 1 mM ThDP, 10% D2O) was prepared aerobically. Oxime 8 (500 μM) was added, and the mixture was incubated at 4 °C for 30 min. Reaction mixtures were then brought into the anaerobic chamber and allowed to deoxygenate ~2 hrs. Reactions were initiated by addition of 1 μM DXPS with 2 mM sodium pyruvate-^13C3 or 2 mM sodium pyruvate-^13C3 and 500 μM GAP. Reaction mixtures were incubated at 25 °C for 1 hr. Reactions were quenched by boiling for 5 min at 95 °C followed by vortexing for 15 seconds. The quenched mixtures were transferred to labeled NMR tubes which were sealed with rubber septa and parafilm prior to removal from the chamber to exclude oxygen once removed from the chamber. 2D Multiple Bond Long Range (LR) ^1H-^15N-HSQC and 1D ^1H detected H{^13C} and H3{^13C} spectra via a proton multiplicity filter which selects for ^13C nuclei attached to an odd number of protons were acquired on a Bruker Avance NEO 600 MHz spectrometer equipped with a TCI cryogenic probe equipped with z-gradients with a cryo-cooled ^13C preamplifier, resulting in high sensitivity for ^13C detection. Spectra were acquired at 600 MHz (^1H), 150 MHz (^13C), and 61 MHz (^15N) at 25 °C. Parameters for various categories of spectra are as follows: (LR ^1H-^15N HSQC): 16 scans and 150 ms acquisition time (t2) per FID and a ^1H spectral width of 15.1376 ppm; since the chemical shifts of N^R (δ 335) and N^O (δ 374) are separated by ~ 40 ppm, data collection times were optimized by positioning the ^15N carrier at 354 ppm and using an ^15N spectral width of 25 ppm and an acquisition time of 13 ms along ^15N (t1); with a 1.5 s relaxation delay between successive scans, the total data collection period per 2D spectrum was 20 minutes. ^1H detected H{^13C} and H3{^13C} filtered 1D spectra: 200 ms acquisition time/FID, and a 5s relaxation day between successive scans, 1.5 minutes per spectrum. Controls were also prepared in which reactions were initiated by addition of 1 μM DXPS with no substrates, as well as 2 mM ^13C-labeled pyruvate + 500 μM GAP with DXPS dialysis buffer in place of enzyme. A “mixed” redox state control of 1 (500 μM) was prepared aerobically in 50 mM HEPES pH 8 with 10% D2O.
structure (smiles),measurement,setting,value
"CC(=O)P(=O)(O)OCCc1cn([C@H](Cc2ccccc2)C(=O)O)nn1 [D-PheTrAP, D-phenylalanine triazol acetyl phosphonate]",fold loss in potency on EcR478A,R478A DXPS,> 30 fold
CO/N=C/c1cc(O)c(O)cc1O [compound 2],MOI varying pyruvate,EcDXPS [1]; footnote a,Noncompetitive
same,Ki,EcDXPS [1]; vary pyruvate,15.6 ± 0.7 µM
"N/N=C/c1cc(O)c(O)cc1O [compound 3, (E,Z)-5-(hydrazineylidenemethyl)benzene-1,2,4-triol]",Ki,EcDXPS [2],17.5 ± 0.6 µM
same,MOI varying D-GAP,EcDXPS [2],competitive
same,MOI varying pyruvate,EcDXPS [2],uncompetitive
CN/N=C/c1cc(O)c(O)cc1O [compound 4],MOI varying D-GAP,EcDXPS [2],mixed
same,MOI varying pyruvate,EcDXPS [2],uncompetitive
same,potency against DXPS,EcDXPS [1]; determined in the presence of ascorbate,lacking measurable potency
CO/N=C/c1ccc(O)c(O)c1 [compound 5],inhibitory activity against DXPS,EcDXPS [1],lack of potency
CO/N=C/c1cc(O)ccc1O [compound 6],inhibitory activity against DXPS,EcDXPS [1],lack of potency
"O/[15N]=C/c1cc(O)c(O)cc1O [compound 8, ^15N-labeled (E)-2,4,5-Trihydroxybenzaldehyde oxime]",redox state after incubation (LR 1H-15N HSQC),"DXPS; DXPS 1 μM + pyruvate 2 mM + D-GAP 500 μM, anaerobic",readily reduced
same,redox state after incubation (LR 1H-15N HSQC),"DXPS; DXPS 1 μM + pyruvate 2 mM, no GAP, anaerobic",fully reduced
same,redox state after incubation (LR 1H-15N HSQC),"DXPS; DXPS 1 μM, no substrates",maintained mostly in the oxidized form
same,redox state after incubation (LR 1H-15N HSQC),DXPS; ascorbate 5 mM control,Total reduction
same,redox state after incubation (LR 1H-15N HSQC),"DXPS; pyruvate 2 mM + D-GAP 500 μM, no DXPS",Some reduction
